Here are results for 9 molecules from ChEMBL document CHEMBL4052693, “1,2,4-Triazole and 1,3,4-oxadiazole analogues: Synthesis, MO studies, in silico molecular docking studies, antimalarial as DHFR inhibitor and antimicrobial activities” (Bioorg Med Chem, 2017).

For orientation: IC50 means the concentration that inhibits the measured activity by half. By MIC99 is commonly meant an inhibitory concentration at the 99% level, which refers to growth in some studies and to a panel of isolates in others.

Data set [1] is described as follows: Cytotoxicity against Schizosaccharomyces pombe Var. Paul Linder 3360 assessed as cell viability at 8 ug/ml after 16 to 18 hrs by trypan blue staining-based compound microscopic analysis (reference value: 93.67 +/- 1.53%). The conditions noted are these: Schizosaccharomyces pombe Var. Paul Linder 3360 cells, read-out: Activity.
The subject of a further data set is Plasmodium falciparum. Description: Antimalarial activity against Plasmodium falciparum ring stage forms after 48 hrs. The data set is classed as functional.
A further data set deals with Escherichia coli. Description: Antimicrobial activity against Escherichia coli MTCC 443 incubated for overnight by broth micro dilution method. Format: functional.
A further data set has as its system Candida albicans. In words: Antifungal activity against Candida albicans MTCC 227 incubated for overnight by broth micro dilution method. The data set is classed as functional.
In the next data set the test system is Staphylococcus aureus. Description: Antimicrobial activity against Staphylococcus aureus MTCC 96 incubated for overnight by broth micro dilution method. The data set is classed as functional.
For another data set, the system named is Streptococcus pyogenes. In words: Antimicrobial activity against Streptococcus pyogenes MTCC 442 incubated for overnight by broth micro dilution method. The data set is classed as functional.
A short description of data set [2]: Cytotoxicity against Schizosaccharomyces pombe Var. Paul Linder 3360 assessed as cell viability at 2 ug/ml after 16 to 18 hrs by trypan blue staining-based compound microscopic analysis (reference value: 93.67 +/- 1.53%). The conditions noted are these: Schizosaccharomyces pombe Var. Paul Linder 3360 cells, read-out: Activity.
Data set [3] in a line: Cytotoxicity against Schizosaccharomyces pombe Var. Paul Linder 3360 assessed as cell viability at 4 ug/ml after 16 to 18 hrs by trypan blue staining-based compound microscopic analysis (reference value: 93.67 +/- 1.53%). To be noted: Schizosaccharomyces pombe Var. Paul Linder 3360 cells, read-out: Activity.
Another data set deals with T1, Dihydrofolate reductase (Bos taurus, UniProt P00376).
T1 sequence (P00376 whole entry): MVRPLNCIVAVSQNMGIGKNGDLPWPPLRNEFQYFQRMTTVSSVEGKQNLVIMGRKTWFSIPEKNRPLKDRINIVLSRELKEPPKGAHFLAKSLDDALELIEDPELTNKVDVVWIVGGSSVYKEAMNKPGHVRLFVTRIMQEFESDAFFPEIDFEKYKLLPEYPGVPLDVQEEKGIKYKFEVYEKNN
In words: Inhibition of bovine liver DHFR pre-incubated 2 mins before dihydrofolic acid substrate addition and measured over 10 mins in presence of NADPH.

Data set [4] can be described thus: Cytotoxicity against Schizosaccharomyces pombe Var. Paul Linder 3360 assessed as cell viability at 10 ug/ml after 16 to 18 hrs by trypan blue staining-based compound microscopic analysis (reference value: 93.67 +/- 1.53%). To be noted: Schizosaccharomyces pombe Var. Paul Linder 3360 cells, read-out: Activity.
Data set [5] relates to Aspergillus clavatus. In words: Antifungal activity against Aspergillus clavatus MTCC 1323 incubated for overnight by broth micro dilution method. The data set is classed as functional.
For the next data set, the system named is Pseudomonas aeruginosa. In words: Antimicrobial activity against Pseudomonas aeruginosa MTCC 1688 incubated for overnight by broth micro dilution method. The data set is classed as functional.
Data set [6] can be described thus: Cytotoxicity against Schizosaccharomyces pombe Var. Paul Linder 3360 assessed as cell viability at 6 ug/ml after 16 to 18 hrs by trypan blue staining-based compound microscopic analysis (reference value: 93.67 +/- 1.53%). The conditions noted are these: Schizosaccharomyces pombe Var. Paul Linder 3360 cells, read-out: Activity.
The test system of data set [7] is Schizosaccharomyces pombe. In words: Genotoxicity in Schizosaccharomyces pombe Var. Paul Linder 3360 assessed as DNA damage at 2 to 10 ug/ml after 17 to 18 hrs by agarose gel electrophoresis analysis.
Data set [8] has as its system Aspergillus clavatus. To be noted: MTCC 1323.

Values after ≈ are worked out from the molar mass of the structure shown. Active and inactive are the calls of the source. The calls are words filed in the database; no cut-off is given here.

`O=[N+]([O-])c1cccc(/C=N/c2ccc(-c3nnc(S)n3/N=C/c3cccc([N+](=O)[O-])c3)cc2)c1`: the viability at 8 ug/ml in data set [1] stood at 65.3%. Further, the IC50 stood at 245 nM in the data set with Plasmodium falciparum and 25.9 nM at Dihydrofolate reductase. For the same molecule, the MIC99 worked out at 423 µM (≈ 200 µg/mL) against Escherichia coli; 1060 µM (≈ 500 µg/mL) in the data set with Candida albicans; 264 µM (≈ 125 µg/mL) in the data set on Staphylococcus aureus; 132 µM (≈ 62.5 µg/mL) in the data set on Streptococcus pyogenes; 2110 µM (≈ 1000 µg/mL) with Aspergillus clavatus [5]; 528 µM (≈ 250 µg/mL) with Pseudomonas aeruginosa. Moreover, the viability at 2 ug/ml in data set [2] turned out to be 87%. Moreover, in data set [3], the viability at 4 ug/ml is 80%. Also, the viability at 10 ug/ml in data set [4] is 59.7%. The viability at 6 ug/ml in data set [6] turned out to be 73.7%. Besides, the Activity result in data set [7] is given as “Toxic”.
On to `Nc1ccc(-c2nnc(S)n2N)cc1`, for which the viability at 8 ug/ml in [1] was determined as 75.7%. In the data set on Plasmodium falciparum, this molecule returned a half-maximal inhibitory concentration (IC50) of 960 nM. Also, the MIC99 against Escherichia coli came out at 1210 µM (≈ 250 µg/mL); against Candida albicans, 4830 µM (≈ 1000 µg/mL); in the data set with Staphylococcus aureus it was 1210 µM (≈ 250 µg/mL); in the data set with Streptococcus pyogenes it was 1210 µM (≈ 250 µg/mL); with Aspergillus clavatus [5], 2420 µM (≈ 501 µg/mL); with Pseudomonas aeruginosa, 966 µM (≈ 200 µg/mL). The viability at 2 ug/ml in data set [2] is 91.3%. Moreover, in data set [3], the viability at 4 ug/ml turned out to be 85.7%. Besides, the viability at 10 ug/ml in data set [4] was 67%. In addition, in [6], the viability at 6 ug/ml was found to be 82%. Further, the Activity entry in data set [7] was “Toxic”.
Consider `COc1ccc(/C=N/c2ccc(-c3nnc(S)o3)cc2)cc1`, for which, in [1], the viability at 8 ug/ml was 63.7%. For the same molecule, the IC50 in the data set on Plasmodium falciparum stood at 790 nM. Also, the MIC99 against Escherichia coli came to 643 µM (≈ 200 µg/mL); in the data set on Candida albicans, 3220 µM (≈ 1000 µg/mL); in the data set with Staphylococcus aureus it was 804 µM (≈ 250 µg/mL); with Streptococcus pyogenes, 804 µM (≈ 250 µg/mL); in the data set on Aspergillus clavatus [5], 1610 µM (≈ 500 µg/mL); with Pseudomonas aeruginosa it was 402 µM (≈ 125 µg/mL). For the same molecule, the viability at 2 ug/ml in data set [2] was found to be 80.3%. The viability at 4 ug/ml in data set [3] stood at 72.3%. The viability at 10 ug/ml in data set [4] stood at 49%. The viability at 6 ug/ml in data set [6] stood at 68%. In [7], the Activity result is given as “Toxic”.
With `Sc1nnc(-c2ccc(/N=C/c3ccc(Cl)cc3)cc2)o1`, the viability at 8 ug/ml in data set [1] worked out at 54.7%. The IC50 turned out to be 301 nM in the data set on Plasmodium falciparum and 45 nM at Dihydrofolate reductase. Further, the MIC99 in the data set with Escherichia coli came out at 635 µM (≈ 201 µg/mL); against Staphylococcus aureus, 794 µM (≈ 251 µg/mL); in the data set on Streptococcus pyogenes, 397 µM (≈ 125 µg/mL); in the data set with Pseudomonas aeruginosa, 397 µM (≈ 125 µg/mL). Also, the MIC99 entry with Candida albicans and in the data set with Aspergillus clavatus [8] was “inactive” each time. The viability at 2 ug/ml in data set [2] was determined as 81.3%. The viability at 4 ug/ml in data set [3] worked out at 73.3%. Besides, the viability at 10 ug/ml in data set [4] is 47%. Moreover, the viability at 6 ug/ml in [6] was 64.7%. The Activity result in data set [7] is “Toxic”.
Consider `Sc1nnc(-c2ccc(/N=C/c3ccc(Cl)cc3)cc2)n1/N=C/c1ccc(Cl)cc1`, for which, in [1], the viability at 8 ug/ml was 55.7%. For the same molecule, the IC50 in the data set with Plasmodium falciparum was 230 nM; at Dihydrofolate reductase, 34.9 nM. The MIC99 in the data set on Escherichia coli was determined as 554 µM (≈ 251 µg/mL); against Staphylococcus aureus, 554 µM (≈ 251 µg/mL); with Streptococcus pyogenes, 222 µM (≈ 100 µg/mL); against Pseudomonas aeruginosa, 222 µM (≈ 100 µg/mL). The MIC99 entry in the data set with Candida albicans and in the data set with Aspergillus clavatus [8] was “inactive” in each case. Besides, in data set [2], the viability at 2 ug/ml is 83.3%. Also, the viability at 4 ug/ml in [3] was found to be 72.3%. Further, the viability at 10 ug/ml in data set [4] was determined as 47%. The viability at 6 ug/ml in [6] stood at 62.3%. In addition, the Activity result in [7] is on record as “Toxic”.
With `O=[N+]([O-])c1cccc(/C=N/c2ccc(-c3nnc(S)o3)cc2)c1`, in data set [1], the viability at 8 ug/ml is 56.7%. The molecule also showed an IC50 in the data set with Plasmodium falciparum of 806 nM. Further, the MIC99 in the data set on Escherichia coli came out at 613 µM (≈ 200 µg/mL); in the data set with Candida albicans, 1530 µM (≈ 501 µg/mL); in the data set with Staphylococcus aureus, 383 µM (≈ 125 µg/mL); against Streptococcus pyogenes, 307 µM (≈ 100 µg/mL); against Aspergillus clavatus [5], 1530 µM (≈ 501 µg/mL); with Pseudomonas aeruginosa it was 613 µM (≈ 200 µg/mL). The viability at 2 ug/ml in data set [2] was found to be 78.3%. In addition, in [3], the viability at 4 ug/ml worked out at 74.3%. In addition, in data set [4], the viability at 10 ug/ml stood at 46.3%. For the same molecule, the viability at 6 ug/ml in [6] was determined as 65.7%. Besides, the Activity result in [7] is reported as “Toxic”.
For `Oc1ccc(/C=N/c2ccc(-c3nnc(S)n3/N=C/c3ccc(O)cc3)cc2)cc1`, the viability at 8 ug/ml in data set [1] stood at 77%. In addition, the IC50 with Plasmodium falciparum was found to be 282 nM; at Dihydrofolate reductase it was 49.5 nM. In addition, the MIC99 against Escherichia coli stood at 241 µM (≈ 100 µg/mL); in the data set with Staphylococcus aureus it was 602 µM (≈ 250 µg/mL); against Streptococcus pyogenes it was 482 µM (≈ 200 µg/mL); against Pseudomonas aeruginosa it was 602 µM (≈ 250 µg/mL). Moreover, the MIC99 result in the data set with Candida albicans and with Aspergillus clavatus [8] was “inactive” in each case. Besides, the viability at 2 ug/ml in data set [2] came out at 84.7%. Also, the viability at 4 ug/ml in [3] is 79.7%. Further, the viability at 10 ug/ml in [4] came to 72.3%. Also, in [6], the viability at 6 ug/ml turned out to be 78.7%. Moreover, the Activity result in data set [7] is reported as “Toxic”.
Consider `CCN(CC)CCCC(C)Nc1ccnc2cc(Cl)ccc12` (centres undefined) [CHLOROQUINE], for which the IC50 at Dihydrofolate reductase is 30.1 nM.
Turning to `Nc1ccc(-c2nnc(S)o2)cc1`, the viability at 8 ug/ml in data set [1] stood at 71%. In the data set on Plasmodium falciparum, this molecule returned an IC50 of 810 nM. Also, the MIC99 with Escherichia coli amounted to 518 µM (≈ 100 µg/mL); in the data set on Candida albicans it was 2590 µM (≈ 500 µg/mL); against Staphylococcus aureus, 324 µM (≈ 62.6 µg/mL); with Streptococcus pyogenes, 518 µM (≈ 100 µg/mL); with Aspergillus clavatus [5], 1300 µM (≈ 250 µg/mL); with Pseudomonas aeruginosa it was 1300 µM (≈ 250 µg/mL). Besides, the viability at 2 ug/ml in data set [2] turned out to be 87.3%. In data set [3], the viability at 4 ug/ml was determined as 83%. Further, the viability at 10 ug/ml in [4] was 68.3%. Moreover, in [6], the viability at 6 ug/ml came to 76%. Further, the Activity entry in data set [7] was “Toxic”.
